Test results reported in ChEMBL document CHEMBL3885861, “Open TG-GATES”.

Species: Rattus norvegicus
Test: Open TG-GATES - Regimen: Daily Repeat
Assay type: toxicity, organism-based, Sprague-Dawley
Design: regimen Daily Repeat, gender Male, age 6 weeks
Settings: in vivo, po, 0 mg/kg, route gavage, dose level Control; for APTT / Bas / Eos / Fbg / Hb / Ht / Lym / MCH / MCHC / MCV / Mono / Neu / PT / Plat / RBC / Ret / WBC: tissue Blood; for KIDNEY_L / KIDNEY_R / KIDNEY_TOTAL: tissue Kidney; for LIVER: tissue Liver; for A/G / ALP / ALT / AST / BUN / CRE / Ca / Cl / DBIL / GLC / IP / K / LDH / Na / PL / RALB / TBIL / TC / TG / TP / gamma-GTP: tissue Plasma

`CN(C)[C@@H]1C(O)=C(C(N)=O)C(=O)[C@@]2(O)C(O)=C3C(=O)c4c(O)cccc4[C@@](C)(O)[C@H]3C[C@@H]12` [TETRACYCLINE] gave a TERMINAL_BW (72 h, time 3 day) of 188 g, an APTT (72 h, time 3 day) of 16 s and a Bas (72 h, time 3 day) of 0%. For the same compound, the Eos (72 h, time 3 day) was 0.8%, the Fbg (72 h, time 3 day) was 221 mg/dL and the Hb (72 h, time 3 day) was 13.6 g/dL. For the same compound, the Ht (72 h, time 3 day) was 41.2%, the Lym (72 h, time 3 day) was 82.4% and the MCH (72 h, time 3 day) was 21.9 pg. The MCHC (72 h, time 3 day) was 33.1%, the MCV (72 h, time 3 day) was 66 fL and the Mono (72 h, time 3 day) was 6.8%. The Neu (72 h, time 3 day) was 10%, the PT (72 h, time 3 day) was 12.3 s and the Plat (72 h, time 3 day) was 96.9 x10_4/uL. It also gave an RBC (72 h, time 3 day) of 625 x10_4/ul, a Ret (72 h, time 3 day) of 8.2% and a WBC (72 h, time 3 day) of 111.7 x10_2/uL. The KIDNEY_L (72 h, time 3 day) was 0.9 g, the KIDNEY_R (72 h, time 3 day) was 0.9 g and the KIDNEY_TOTAL (72 h, time 3 day) was 1.7 g. It also gave an LIVER (72 h, time 3 day) of 9 g, an A/G (72 h, time 3 day) of 2.2 and an ALP (72 h, time 3 day) of 921.6 IU/L. The ALT (72 h, time 3 day) was 43.6 IU/L, the AST (72 h, time 3 day) was 69 IU/L and the BUN (72 h, time 3 day) was 17.6 mg/dL. For the same compound, the CRE (72 h, time 3 day) was 0.6 mg/dL, the Ca (72 h, time 3 day) was 11.2 mg/dL and the Cl (72 h, time 3 day) was 105.4 meq/L. It also gave a DBIL (72 h, time 3 day) of 0.008 mg/dL, a GLC (72 h, time 3 day) of 183 mg/dL and an IP (72 h, time 3 day) of 8.2 mg/dL. The K (72 h, time 3 day) was 4.7 meq/L, the LDH (72 h, time 3 day) was 99.8 IU/L and the Na (72 h, time 3 day) was 140.2 meq/L. For the same compound, the PL (72 h, time 3 day) was 150.2 mg/dL, the RALB (72 h, time 3 day) was 4 g/dL and the TBIL (72 h, time 3 day) was 0.3 mg/dL. It also gave a TC (72 h, time 3 day) of 83.2 mg/dL, a TG (72 h, time 3 day) of 80.2 mg/dL and a TP (72 h, time 3 day) of 5.8 g/dL. The gamma-GTP (72 h, time 3 day) was 1.4 IU/L, the TERMINAL_BW ([…], time 7 day) was 228 g and the TERMINAL_BW ([…], time 14 day) was 287.8 g. The TERMINAL_BW ([…], time 28 day) was 360.5 g, the APTT ([…], time 7 day) was 18.8 s and the Bas ([…], time 7 day) was 0%. The Eos ([…], time 7 day) was 1%, the Fbg ([…], time 7 day) was 226.7 mg/dL and the Hb ([…], time 7 day) was 13.6 g/dL. The Ht ([…], time 7 day) was 40.4%, the Lym ([…], time 7 day) was 80.8% and the MCH ([…], time 7 day) was 21.6 pg. It also gave an MCHC ([…], time 7 day) of 33.5%, an MCV ([…], time 7 day) of 64.3 fL and a Mono ([…], time 7 day) of 6.2%. The Neu ([…], time 7 day) was 12%, the PT ([…], time 7 day) was 12.1 s and the Plat ([…], time 7 day) was 112.5 x10_4/uL. For the same compound, the RBC ([…], time 7 day) was 629.6 x10_4/ul, the Ret ([…], time 7 day) was 6.6% and the WBC ([…], time 7 day) was 142 x10_2/uL. For the same compound, the APTT ([…], time 14 day) was 17 s, the Bas ([…], time 14 day) was 0% and the Eos ([…], time 14 day) was 0.6%. The Fbg ([…], time 14 day) was 238.4 mg/dL, the Hb ([…], time 14 day) was 13.9 g/dL and the Ht ([…], time 14 day) was 41.6%. The Lym ([…], time 14 day) was 80.4%, the MCH ([…], time 14 day) was 20.9 pg and the MCHC ([…], time 14 day) was 33.5%. The MCV ([…], time 14 day) was 62.3 fL, the Mono ([…], time 14 day) was 5.6% and the Neu ([…], time 14 day) was 13.6%. The PT ([…], time 14 day) was 11.7 s, the Plat ([…], time 14 day) was 109.2 x10_4/uL and the RBC ([…], time 14 day) was 668.4 x10_4/ul. For the same compound, the Ret ([…], time 14 day) was 5.7%, the WBC ([…], time 14 day) was 131 x10_2/uL and the APTT ([…], time 28 day) was 17.8 s. It also gave a Bas ([…], time 28 day) of 0%, an Eos ([…], time 28 day) of 1.4% and a Fbg ([…], time 28 day) of 235.8 mg/dL. For the same compound, the Hb ([…], time 28 day) was 14.8 g/dL, the Ht ([…], time 28 day) was 43.9% and the Lym ([…], time 28 day) was 83%. For the same compound, the MCH ([…], time 28 day) was 19.6 pg, the MCHC ([…], time 28 day) was 33.6% and the MCV ([…], time 28 day) was 58.3 fL. The Mono ([…], time 28 day) was 4.4%, the Neu ([…], time 28 day) was 11.6% and the PT ([…], time 28 day) was 11.8 s. The Plat ([…], time 28 day) was 100.7 x10_4/uL, the RBC ([…], time 28 day) was 753.4 x10_4/ul and the Ret ([…], time 28 day) was 2.9%. The WBC ([…], time 28 day) was 164.6 x10_2/uL, the KIDNEY_L ([…], time 7 day) was 1 g and the KIDNEY_R ([…], time 7 day) was 1 g. It also gave a KIDNEY_TOTAL ([…], time 7 day) of 2 g, a KIDNEY_L ([…], time 14 day) of 1.2 g and a KIDNEY_R ([…], time 14 day) of 1.2 g. It also gave a KIDNEY_TOTAL ([…], time 14 day) of 2.3 g, a KIDNEY_L ([…], time 28 day) of 1.3 g and a KIDNEY_R ([…], time 28 day) of 1.3 g. For the same compound, the KIDNEY_TOTAL ([…], time 28 day) was 2.7 g, the LIVER ([…], time 7 day) was 10.9 g and the LIVER ([…], time 14 day) was 13.5 g. For the same compound, the LIVER ([…], time 28 day) was 16 g, the A/G ([…], time 7 day) was 2.1 and the ALP ([…], time 7 day) was 1017 IU/L. The ALT ([…], time 7 day) was 38.2 IU/L, the AST ([…], time 7 day) was 63.2 IU/L and the BUN ([…], time 7 day) was 19 mg/dL. The CRE ([…], time 7 day) was 0.6 mg/dL, the Ca ([…], time 7 day) was 11 mg/dL and the Cl ([…], time 7 day) was 106.4 meq/L. The DBIL ([…], time 7 day) was 0.006 mg/dL, the GLC ([…], time 7 day) was 184.4 mg/dL and the IP ([…], time 7 day) was 8.1 mg/dL. The K ([…], time 7 day) was 6.3 meq/L, the LDH ([…], time 7 day) was 107.6 IU/L and the Na ([…], time 7 day) was 139 meq/L. For the same compound, the PL ([…], time 7 day) was 157.8 mg/dL, the RALB ([…], time 7 day) was 3.9 g/dL and the TBIL ([…], time 7 day) was 0.3 mg/dL. The TC ([…], time 7 day) was 83.4 mg/dL, the TG ([…], time 7 day) was 90.8 mg/dL and the TP ([…], time 7 day) was 5.7 g/dL. The gamma-GTP ([…], time 7 day) was 1 IU/L, the A/G ([…], time 14 day) was 1.8 and the ALP ([…], time 14 day) was 903 IU/L. The ALT ([…], time 14 day) was 30.6 IU/L, the AST ([…], time 14 day) was 67.4 IU/L and the BUN ([…], time 14 day) was 18.6 mg/dL. The CRE ([…], time 14 day) was 0.5 mg/dL, the Ca ([…], time 14 day) was 11.1 mg/dL and the Cl ([…], time 14 day) was 103.2 meq/L. The DBIL ([…], time 14 day) was 0.01 mg/dL, the GLC ([…], time 14 day) was 175.2 mg/dL and the IP ([…], time 14 day) was 7.9 mg/dL. For the same compound, the K ([…], time 14 day) was 4.7 meq/L, the LDH ([…], time 14 day) was 100.6 IU/L and the Na ([…], time 14 day) was 141 meq/L. The PL ([…], time 14 day) was 154.6 mg/dL, the RALB ([…], time 14 day) was 4 g/dL and the TBIL ([…], time 14 day) was 0.3 mg/dL. The TC ([…], time 14 day) was 72.2 mg/dL, the TG ([…], time 14 day) was 134.8 mg/dL and the TP ([…], time 14 day) was 6.2 g/dL. For the same compound, the gamma-GTP ([…], time 14 day) was 1.6 IU/L, the A/G ([…], time 28 day) was 1.7 and the ALP ([…], time 28 day) was 807.8 IU/L. For the same compound, the ALT ([…], time 28 day) was 31.2 IU/L, the AST ([…], time 28 day) was 58.2 IU/L and the BUN ([…], time 28 day) was 20.8 mg/dL. For the same compound, the CRE ([…], time 28 day) was 0.6 mg/dL, the Ca ([…], time 28 day) was 10.9 mg/dL and the Cl ([…], time 28 day) was 106.2 meq/L. For the same compound, the DBIL ([…], time 28 day) was 0.016 mg/dL, the GLC ([…], time 28 day) was 175.2 mg/dL and the IP ([…], time 28 day) was 7.2 mg/dL. It also gave a K ([…], time 28 day) of 4.6 meq/L, an LDH ([…], time 28 day) of 91.4 IU/L and a Na ([…], time 28 day) of 140 meq/L. It also gave a PL ([…], time 28 day) of 164 mg/dL, an RALB ([…], time 28 day) of 3.8 g/dL and a TBIL ([…], time 28 day) of 0.3 mg/dL. The TC ([…], time 28 day) was 78.2 mg/dL, the TG ([…], time 28 day) was 154.8 mg/dL and the TP ([…], time 28 day) was 6.1 g/dL. It also gave a gamma-GTP ([…], time 28 day) of 1 IU/L.
